Data as given in PubChem BioAssay AID2060898 (Molecular Pharmacology Branch, DTP, NCI, 2025).
Several values for one entry are separate records, joined by “and”; a condition that tells them apart may be missing. Identical values can stand only once. Each block holds one molecule with its values, some of them ahead of it.

Tested on: 616215-338-R-J1-PDC complex spheroid viability
Assay: Anticancer human tumor 616215-338-R-J1-PDC patient-derived colon adenocarcinoma cell line growth inhibition [RAS]
Details: for viability, T/C: stronger effect = lower value
Outline: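 Agents were tested in combination matrices in half-log decrements from a top concentration at or near clinical Cmax (10 microM if undetermined). Targets were multi-cell spheroids of tumour lines plus HUVEC and MSC stromal cells.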
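Further: spheroids exposed to agents for seven days before viability readout.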
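Wherever viability, T/C is given: 100% = DMSO vehicle control viability.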

IC50 (curve of compound): < 31.6 nM
Compound: CC(=O)OC12COC1CC(O)C1(C)C(=O)C(O)C3=C(C)C(OC(=O)C(O)C(NC(=O)OC(C)(C)C)c4ccccc4)CC(O)(C(OC(=O)c4ccccc4)C21)C3(C)C (centres undefined)
viability, T/C (compound 0.0316 µM): 27.8% [middle of 4 runs]
viability, T/C (compound 0.1 µM): 21% [middle of 4 runs]
viability, T/C (compound 0.316 µM): 19.1% (2×) and 21.2% and 18.8%
viability, T/C (compound 1 µM): 21.3% [middle of 4 runs]
viability, T/C (compound 3.16 µM): 22.3% [middle of 4 runs]
viability, T/C (compound 10 µM): 28.5% [middle of 4 runs]

IC50 (curve of first compound, second compound 0.000949 µM): 64.9 nM
IC50 (curve of first compound, second compound 0.003 µM): 53.7 nM
IC50 (curve of first compound, second compound 0.00949 µM): 57.8 nM
IC50 (curve of first compound, second compound 0.03 µM): 53.1 nM
IC50 (curve of first compound, second compound 0.0949 µM): 47.5 nM
IC50 (curve of first compound, second compound 0.3 µM): 14.8 nM
Compound: O=C(c1ccc(F)c(F)c1Nc1ccc(I)cc1F)N1CC(O)([C@@H]2CCCCN2)C1 + CCn1c(-c2cccnc2C(C)OC)c2c3cc(ccc31)N1CCOC(CC(NC(=O)C(C(C)C)N(C)C(=O)C3(F)CCN(C(=O)C#CC(C)(C)N(C)C)CC3)C(=O)N3CCCC(N3)C(=O)OCC(C)(C)C2)C1
viability, T/C (second compound 0.000949 µM, first compound 0.00316 µM): 108%
viability, T/C (second compound 0.000949 µM, first compound 0.01 µM): 99.2%
viability, T/C (second compound 0.000949 µM, first compound 0.0316 µM): 70.6%
viability, T/C (second compound 0.000949 µM, first compound 0.1 µM): 34.7%
viability, T/C (second compound 0.000949 µM, first compound 0.316 µM): 21.4%
viability, T/C (second compound 0.000949 µM, first compound 1 µM): 4.49%
viability, T/C (second compound 0.003 µM, first compound 0.00316 µM): 112%
viability, T/C (second compound 0.003 µM, first compound 0.01 µM): 109%
viability, T/C (second compound 0.003 µM, first compound 0.0316 µM): 63.3%
viability, T/C (second compound 0.003 µM, first compound 0.1 µM): 30.5%
viability, T/C (second compound 0.003 µM, first compound 0.316 µM): 18%
viability, T/C (second compound 0.003 µM, first compound 1 µM): 2.97%
viability, T/C (second compound 0.00949 µM, first compound 0.00316 µM): 105%
viability, T/C (second compound 0.00949 µM, first compound 0.01 µM): 109%
viability, T/C (second compound 0.00949 µM, first compound 0.0316 µM): 61.5%
viability, T/C (second compound 0.00949 µM, first compound 0.1 µM): 34.8%
viability, T/C (second compound 0.00949 µM, first compound 0.316 µM): 22.2%
viability, T/C (second compound 0.00949 µM, first compound 1 µM): 3.61%
viability, T/C (second compound 0.03 µM, first compound 0.00316 µM): 125%
viability, T/C (second compound 0.03 µM, first compound 0.01 µM): 93.9%
viability, T/C (second compound 0.03 µM, first compound 0.0316 µM): 61.8%
viability, T/C (second compound 0.03 µM, first compound 0.1 µM): 34.7%
viability, T/C (second compound 0.03 µM, first compound 0.316 µM): 16.9%
viability, T/C (second compound 0.03 µM, first compound 1 µM): 2.6%
viability, T/C (second compound 0.0949 µM, first compound 0.00316 µM): 101%
viability, T/C (second compound 0.0949 µM, first compound 0.01 µM): 87.9%
viability, T/C (second compound 0.0949 µM, first compound 0.0316 µM): 59.2%
viability, T/C (second compound 0.0949 µM, first compound 0.1 µM): 31.2%
viability, T/C (second compound 0.0949 µM, first compound 0.316 µM): 13.3%
viability, T/C (second compound 0.0949 µM, first compound 1 µM): 2.27%
viability, T/C (second compound 0.3 µM, first compound 0.00316 µM): 85.8%
viability, T/C (second compound 0.3 µM, first compound 0.01 µM): 58.6%
viability, T/C (second compound 0.3 µM, first compound 0.0316 µM): 32.8%
viability, T/C (second compound 0.3 µM, first compound 0.1 µM): 20.4%
viability, T/C (second compound 0.3 µM, first compound 0.316 µM): 5.09%
viability, T/C (second compound 0.3 µM, first compound 1 µM): 1.18%
